Our source for the inhibition and IC50 values is patent publication US10144742B2 (Millennium Pharmaceuticals, Inc., priority 2014, dated 2018).

One assay has as its system PC3 cells. Description: PC3 growth inhibition (Cell-titer glo, 72 hours). Type of assay: cell-based. The settings on record: Homo sapiens, PC-3, PC3 cells, 72 hours, Cell-titer glo, read-out: Percent Inhibition (PC3 growth inhibition); for inhibition at 1 µM: compound concentration 1 μM; for inhibition at 1.667 µM: compound concentration 1.667 μM. The procedure, abridged: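 PC3 cells in RPMI1640 seeded overnight at 37 °C, 5% CO2, then exposed to compound diluted in AIM serum-free medium for 72 h. Viability by CellTiter-Glo luminescence vs DMSO controls; single-concentration % remaining viability (1 μM or 1.667 μM), or GI50/LD50 from curves.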

Another assay addresses hNAMPT protein (Homo sapiens (Human), UniProt P43490). Description: NAMPT enzyme assay (TR-FRET/HTRF, BodiPY ligand, anti 6His-Tb). Format: binding. Particulars: for IC50: NAMPT IC50 range class, read-out: IC50; for inhibition at 1 µM: read-out: Percent Inhibition. The procedure, abridged:
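TR-FRET binding assay in which His-tagged human NAMPT with anti-6His-Tb is displaced by compound from a BodiPY ligand, incubated 1 h at rt in the dark. Excitation was at 320 nm, with the 520/486 nm emission ratio read. IC50 was fitted from inhibition relative to DMSO controls.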
In general terms: TR-FRET usually uses a lanthanide donor and a delayed reading to cut background.

Where two headings read alike, the source gives them in different places. A value given as a limit tells only on which side of the number the result lay.

hNAMPT protein, sequence (P43490 whole entry): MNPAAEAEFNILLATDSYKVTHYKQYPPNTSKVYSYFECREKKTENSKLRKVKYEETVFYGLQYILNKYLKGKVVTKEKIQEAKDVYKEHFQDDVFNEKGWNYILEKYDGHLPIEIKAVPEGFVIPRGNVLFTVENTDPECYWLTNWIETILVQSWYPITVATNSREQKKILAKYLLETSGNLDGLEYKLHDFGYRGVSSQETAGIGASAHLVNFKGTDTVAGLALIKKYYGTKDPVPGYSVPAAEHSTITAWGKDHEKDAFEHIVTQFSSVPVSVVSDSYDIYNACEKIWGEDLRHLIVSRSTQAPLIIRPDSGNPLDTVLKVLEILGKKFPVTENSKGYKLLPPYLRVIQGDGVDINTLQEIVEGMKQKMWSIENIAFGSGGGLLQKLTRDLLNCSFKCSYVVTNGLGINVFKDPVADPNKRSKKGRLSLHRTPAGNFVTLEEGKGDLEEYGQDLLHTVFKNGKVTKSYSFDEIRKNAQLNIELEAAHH

As a reminder, the inhibition is the drop in the measured response relative to a control, in per cent. Broadly, the IC50 is the concentration that inhibits the measured activity by half. Take `O=C(NCCCn1ccnc1)c1ccc2nc(-c3ccccc3)c(-c3ccccc3Cl)nc2c1` [Compound I-281, 3-(2-chlorophenyl)-N-[3-(1H-imidazol-1-yl)propyl]-2-phenylquinoxaline-6-carboxamide]: the figures for the inhibition at 1 µM in the assay on PC3 cells and at hNAMPT protein (compound concentration 1 μM) were 6% and 37%, respectively. Also, on hNAMPT protein, the half-inhibitory concentration (IC50) lay within 1 to 2 µM.

As for `O=C(NCc1cn2cccnc2n1)c1ccc2nc(N3CCC(O)CC3)c(-c3ccc(F)cc3)nc2c1` [Compound I-282, 3-(4-Fluorophenyl)-2-(4-hydroxypiperidin-1-yl)-N-(imidazo[1,2-a]pyrimidin-2-ylmethyl)quinoxaline-6-carboxamide], the inhibition at 1.667 µM in the assay with PC3 cells stood at 96%. Further, at hNAMPT protein, the IC50 was below 0.1 µM. In addition, the inhibition at 1 µM on hNAMPT protein (compound concentration 1 μM) stood at 91%.

Consider `O=C(NCCCn1ccnc1)c1ccc2nc(-c3ccccc3)c(N3CCn4ccnc4C3)nc2c1` [Compound I-283, 3-(5,6-dihydroimidazo[1,2-a]pyrazin-7(8H)-yl)-N-[3-(1H-imidazol-1-yl)propyl]-2-phenylquinoxaline-6-carboxamide], for which the values for the inhibition at 1 µM in the assay with PC3 cells and at hNAMPT protein (compound concentration 1 μM) were 100% and 12%, respectively. Besides, the half-inhibitory concentration (IC50) on hNAMPT protein is 2 to 10 µM.

In the case of `CC(C)Oc1c2c(nn1C)CCN(C(=O)c1ccc3nc(-c4ccc(F)cc4)c(-c4ccc(F)cc4)nc3c1)C2` [Compound I-284, [2,3-bis(4-fluorophenyl)quinoxalin-6-yl](3-isopropoxy-2-methyl-2,4,6,7-tetrahydro-5H-pyrazolo[4,3-c]pyridin-5-yl)methanone], the figures for the inhibition at 1 µM in the assay with PC3 cells and at hNAMPT protein (compound concentration 1 μM) were 98% and 14%, respectively. For the same molecule, the IC50 on hNAMPT protein is 2 to 10 µM.

As to `O=C(c1ccc2nc(-c3ccc(F)cc3)c(-c3ccc(F)cc3)nc2c1)N1CCc2[nH]nc(O)c2C1` [Compound I-285, [2,3-bis(4-fluorophenyl)quinoxalin-6-yl](3-hydroxy-1,4,6,7-tetrahydro-5H-pyrazolo[4,3-c]pyridin-5-yl)methanone], the inhibition at 1 µM with PC3 cells was 97%; at hNAMPT protein (compound concentration 1 μM), 7%. On hNAMPT protein, the IC50 is 2 to 10 µM.

Take `NCc1ccc(-c2nc3cc(C(=O)NCCc4cccnc4)ccc3nc2-c2ccccc2)cc1` [Compound I-286, 3-[4-(Aminomethyl)phenyl]-2-phenyl-N-[2-(pyridin-3-yl)ethyl]quinoxaline-6-carboxamide]: the inhibition at 1 µM with PC3 cells is 4%; at hNAMPT protein it was 13%. Besides, on hNAMPT protein, the half-inhibitory concentration (IC50) is 2 to 10 µM.

In the case of `O=C(NCCCc1ncc[nH]1)c1ccc2nc(N3CCS(=O)(=O)CC3)c(-c3ccc(F)cc3)nc2c1` [Compound I-287, 2-(1,1-dioxidothiomorpholin-4-yl)-3-(4-fluorophenyl)-N-[3-(1H-imidazol-2-yl)propyl]quinoxaline-6-carboxamide], the inhibition at 1.667 µM in the assay with PC3 cells amounted to 2%. Besides, at hNAMPT protein, the IC50 was below 0.1 µM. Further, at hNAMPT protein (compound concentration 1 μM), the inhibition at 1 µM was 98%.

Consider `O=C(NCCCc1ncc[nH]1)c1ccc2nc(N3CC4(CCOCC4)C3)c(-c3ccc(F)cc3)nc2c1` [Compound I-288, 3-(4-fluorophenyl)-N-[3-(1H-imidazol-2-yl)propyl]-2-(7-oxa-2-azaspiro[3.5]non-2-yl)quinoxaline-6-carboxamide], for which the inhibition at 1.667 µM in the assay on PC3 cells is 2%. Moreover, the IC50 on hNAMPT protein was below 0.1 µM. Further, the inhibition at 1 µM at hNAMPT protein (compound concentration 1 μM) is above 99%.

Regarding `O=C(NCCCn1ccnc1)c1ccc2nc(N3CCS(=O)(=O)CC3)c(-c3ccccc3)nc2c1` [Compound I-289, 2-(1,1-dioxidothiomorpholin-4-yl)-N-[3-(1H-imidazol-1-yl)propyl]-3-phenylquinoxaline-6-carboxamide], the values for the inhibition at 1 µM in the assay with PC3 cells and at hNAMPT protein (compound concentration 1 μM) were -7% and 45%, respectively. Besides, on hNAMPT protein, the 50% inhibitory concentration (IC50) was 1 to 2 µM.

In the case of `CS(=O)(=O)Nc1cccc(-c2nc3ccc(C(=O)NCCCn4ccnc4)cc3nc2-c2ccccc2)c1` [Compound I-290, N-[3-(1H-imidazol-1-yl)propyl]-2-{3-[(methylsulfonyl)amino]phenyl}-3-phenylquinoxaline-6-carboxamide], the results for the inhibition at 1 µM with PC3 cells and on hNAMPT protein (compound concentration 1 μM) were -8% and 81%, respectively. The concentration for half-maximal inhibition (IC50) on hNAMPT protein lay in the range of 0.1 to 0.5 µM.

For `COc1cccc(-c2nc3cc(C(=O)NCCc4cccnc4)ccc3nc2N2CCC(N3CCOCC3)CC2)c1` [Compound I-291, 3-(3-Methoxyphenyl)-2-[4-(morpholin-4-yl)piperidin-1-yl]-N-[2-(pyridin-3-yl)ethyl]quinoxaline-6-carboxamide], the inhibition at 1.667 µM in the assay on PC3 cells worked out at 2%. The IC50 on hNAMPT protein is below 0.1 µM. Further, the inhibition at 1 µM at hNAMPT protein (compound concentration 1 μM) was 98%.

As to `Cn1cncc1CCNC(=O)c1ccc2nc(N3CCC(O)CC3)c(-c3ccc(F)cc3)nc2c1` [Compound I-292, 3-(4-fluorophenyl)-2-(4-hydroxypiperidin-1-yl)-N-[2-(1-methyl-1H-imidazol-5-yl)ethyl]quinoxaline-6-carboxamide], the inhibition at 1.667 µM in the assay with PC3 cells worked out at 2%. Also, the IC50 on hNAMPT protein was below 0.1 µM. In addition, the inhibition at 1 µM at hNAMPT protein (compound concentration 1 μM) was found to be 90%.

Take `Cn1cc2c(n1)CN(c1nc3cc(C(=O)NCCCn4ccnc4)ccc3nc1-c1ccccc1)CC2` [Compound I-295, N-[3-(1H-imidazol-1-yl)propyl]-3-(2-methyl-2,4,5,7-tetrahydro-6H-pyrazolo[3,4-c]pyridin-6-yl)-2-phenylquinoxaline-6-carboxamide]: the figures for the inhibition at 1 µM with PC3 cells and on hNAMPT protein (compound concentration 1 μM) were -6% and 49%, respectively. Further, on hNAMPT protein, the concentration for half-maximal inhibition (IC50) is 1 to 2 µM.

Regarding `O=C(NCCCn1ccnc1)c1ccc2nc(N3CCn4ccnc4C3)c(-c3ccccc3)nc2c1` [Compound I-296, 2-(5,6-dihydroimidazo[1,2-a]pyrazin-7(8H)-yl)-N-[3-(1H-imidazol-1-yl)propyl]-3-phenylquinoxaline-6-carboxamide], the inhibition at 1 µM is -7% with PC3 cells and 67% on hNAMPT protein (compound concentration 1 μM). Also, the IC50 on hNAMPT protein was 0.5 to 1 µM.

In the case of `O=C(NCCCc1cn[nH]c1)c1ccc2nc(N3CCOCC3)c(-c3ccc(F)cc3)nc2c1` [Compound I-297, 3-(4-Fluorophenyl)-2-(morpholin-4-yl)-N-[3-(1H-pyrazol-4-yl)propyl]quinoxaline-6-carboxamide], the inhibition at 1.667 µM in the assay on PC3 cells is 2%. Also, the IC50 at hNAMPT protein lay in the range of 0.1 to 0.5 µM. The inhibition at 1 µM on hNAMPT protein (compound concentration 1 μM) turned out to be 88%.

On to `O=C(NCCCc1ncc[nH]1)c1ccc2nc(N3CCC(O)CC3)c(-c3ccc(Cl)cc3)nc2c1` [Compound I-298, 3-(4-chlorophenyl)-2-(4-hydroxypiperidin-1-yl)-N-[3-(1H-imidazol-2-yl)propyl]quinoxaline-6-carboxamide], for which, in the assay with PC3 cells, the inhibition at 1.667 µM stood at 2%. Moreover, the IC50 on hNAMPT protein was below 0.1 µM. Further, the inhibition at 1 µM on hNAMPT protein (compound concentration 1 μM) was above 99%.

`O=C(NCc1ccc2nccn2c1)c1ccc2nc(-c3ccc(F)cc3)c(-c3ccc(F)cc3)nc2c1` [Compound I-299, 2,3-bis(4-fluorophenyl)-N-(imidazo[1,2-a]pyridin-6-ylmethyl)quinoxaline-6-carboxamide]: the inhibition at 1.667 µM in the assay with PC3 cells was 2%. On hNAMPT protein, the 50% inhibitory concentration (IC50) lay in the range of 0.1 to 0.5 µM. Further, the inhibition at 1 µM on hNAMPT protein (compound concentration 1 μM) worked out at 76%.

In the case of `O=C(NCCCc1ncc[nH]1)c1ccc2nc(C3=CCOCC3)c(-c3cccs3)nc2c1` [Compound I-300, 2-(3,6-dihydro-2H-pyran-4-yl)-N-[3-(1H-imidazol-2-yl)propyl]-3-(2-thienyl)quinoxaline-6-carboxamide], the inhibition at 1.667 µM in the assay with PC3 cells was 32%. The IC50 at hNAMPT protein was below 0.1 µM. For the same molecule, on hNAMPT protein (compound concentration 1 μM), the inhibition at 1 µM is above 99%.

Regarding `O=C(NCCCc1c[nH]cn1)c1ccc2nc(N3CCCCC3)c(-c3ccc(F)cc3)nc2c1` [Compound I-301, 3-(4-Fluorophenyl)-N-[3-(1H-imidazol-4-yl)propyl]-2-(piperidin-1-yl)quinoxaline-6-carboxamide], the inhibition at 1.667 µM in the assay on PC3 cells amounted to 2%. Further, the concentration for half-maximal inhibition (IC50) on hNAMPT protein was below 0.1 µM. In addition, the inhibition at 1 µM at hNAMPT protein (compound concentration 1 μM) was determined as 99%.

Take `O=C(NCCc1cnc2ccccn12)c1ccc2nc(-c3ccc(F)cc3)c(-c3ccc(F)cc3)nc2c1` [Compound I-302, 2,3-bis(4-fluorophenyl)-N-[2-(imidazo[1,2-a]pyridin-3-yl)ethyl]quinoxaline-6-carboxamide]: the inhibition at 1 µM in the assay with PC3 cells turned out to be 87%; at hNAMPT protein (compound concentration 1 μM), 63%. Besides, at hNAMPT protein, the IC50 was 0.5 to 1 µM.

`Cn1ccc2c1CN(C(=O)c1ccc3nc(-c4ccc(F)cc4)c(-c4ccc(F)cc4)nc3c1)CC2` [Compound I-303, [2,3-bis(4-fluorophenyl)quinoxalin-6-yl](1-methyl-1,4,5,7-tetrahydro-6H-pyrrolo[2,3-c]pyridin-6-yl)methanone]: the inhibition at 1 µM with PC3 cells came out at 95%; at hNAMPT protein (compound concentration 1 μM) it was 15%. Besides, the IC50 at hNAMPT protein lay within 2 to 10 µM.

As for `COc1nn(C)c2c1CN(C(=O)c1ccc3nc(-c4ccc(F)cc4)c(-c4ccc(F)cc4)nc3c1)CC2` [Compound I-304, [2,3-bis(4-fluorophenyl)quinoxalin-6-yl](3-methoxy-1-methyl-1,4,6,7-tetrahydro-5H-pyrazolo[4,3-c]pyridin-5-yl)methanone], the values for the inhibition at 1 µM in the assay with PC3 cells and on hNAMPT protein (compound concentration 1 μM) were 92% and 17%, respectively. Further, on hNAMPT protein, the IC50 lay in the range of 2 to 10 µM.

Take `O=C(NCCCc1ncc[nH]1)c1ccc2nc(-n3ncc4ccccc43)c(-c3ccc(F)cc3)nc2c1` [Compound I-305, 3-(4-fluorophenyl)-N-[3-(1H-imidazol-2-yl)propyl]-2-(1H-indazol-1-yl)quinoxaline-6-carboxamide]: the inhibition at 1.667 µM with PC3 cells amounted to 3%. Moreover, at hNAMPT protein, the IC50 is below 0.1 µM. Besides, the inhibition at 1 µM on hNAMPT protein (compound concentration 1 μM) amounted to 93%.
